In patent publication US20150309047A1, “CIRCULATING PROTEOLYTIC BIOMARKERS OF CELL DEATH AND METHODS FOR THE USE THEREOF” (The Regents of the University of California, priority 2014, published 2015):
Residues, ends and D or L forms follow the SMILES beside them. *: point of attachment. Cbz = O=C(OCc1ccccc1)*; CH2F = FC*

Assays:
Assay type in all cases: cell-based, human
Jurkat cells [1] = assay: Immunoblotting of caspase substrate proteolysis during apoptosis in Jurkat cells
Method: Jurkat cells at a density of 1×10^6 cells/ml were treated with etoposide (50 μM) for 0, 2, 4, 8, 12, and 24 hours prior to harvesting. Harvested cells were pelleted at 2,000×g and 25° C. for 5 minutes, washed twice with phosphate buffered saline, and lysed at a concentration of 2×10^7 cells/ml in 1.0% SDS, phosphate buffered saline, 100 μM Z-VAD-FMK, 100 μM E-64, 1 mM PMSF, 1 mM AEBSF, 5 mM EDTA, and 10 mM sodium butyrate. Whole cell lysates were sonicated to shear genomic DNA, normalized to a protein concentration of approximately 2 mg/ml, as determined by BCA assay (Pierce). Cell lysates for each apoptotic timepoint were then analyzed by SDS-PAGE and Western blot. Mouse monoclonal anti-caspase-3 (#9668) and rabbit polyclonal anti-HDAC3 (#2632) antibodies were purchased from Cell Signaling Technology. Mouse monoclonal anti-DFF45 (#611036) antibody was purchased from BD Transduction Laboratories. Goat polyclonal anti-N-Cor (#sc-1611) and rabbit polyclonal anti-HDAC7 (#sc-11412) antibodies were purchased from Santa Cruz Biotechnology. Rabbit polyclonal anti-TBLR1 (#A300-408A), rabbit polyclonal anti-SHARP (#A301-119A), and rabbit polyclonal anti-RBBP7 (#A300-959A) antibodies were purchased from Bethyl Laboratories. Rabbit polyclonal anti-SMRTe (#06-891) antibody was purchased from Millipore. Western blots were imaged using SuperSignal West Femto Substrate (Pierce) with a FluorChem SP imager (Alpha Innotech). DNA fragmentation of whole cell DNA was analyzed by agarose gel with the Apoptotic DNA Ladder Kit (Roche).

MM1.S = assay: N-terminal labeling and MS of proteolytic fragments released into media from drug-treated cultured cells; details: MM1.S treated with bortezomib for at least 21 h
Method: (§1) MM1.S and SU-DHL-8 lines were obtained from ATCC; MOLM-13 from DMSZ. Cell lines were grown in RPMI-1640 media without fetal bovine serum for 24 h prior to drug treatment at indicated doses. After treatment, cells and debris were separated from media by low speed (800×g, 5 min), followed by high speed (24,000×g, 1 h) centrifugation. Total protein in media was precipitated with trichloroacetic acid, resuspended in 8M guanidine HCl, then subjected to N-terminal labeling as described (Wiita A P, et al. (2013) Global cellular response to chemotherapy-induced apoptosis. Elife 2:e01236).
(§2) Three cell lines treated with different drugs were evaluated: i) MM1.S, derived from multiple myeloma and treated with the proteasome inhibitor bortezomib, ii) MOLM-13, derived from acute myeloid leukemia and treated with the nucleoside analog cytarabine, and iii) SU-DHL-8, derived from diffuse large B-cell lymphoma and treated with the DNA-damaging agent doxorubicin. All of these conditions reflect the diagnoses of patients in the discovery cohort combined with clinically used chemotherapeutics. Under each condition the cells were either treated with drug or mock-treated for at least 21 h. […] After removing whole cells, proteins in the media were precipitated with trichloroacetic acid and then subjected to N-terminal labeling by subtiligase. FBS-free media was used in these experiments to avoid contamination from normal bovine plasma proteins.

MOLM-13 = assay: as above; details: MOLM-13 treated with cytarabine for at least 21 h
Method: as §1, §2

SU-DHL-8 = assay: as above; details: SU-DHL-8 treated with doxorubicin for at least 21 h
Method: as §1, §2

Jurkat cells [2] = assay: Subtiligase N-terminal labeling and LC/MS/MS degradomic analysis of etoposide-treated apoptotic Jurkat cells; details: Jurkat cells treated with etoposide
Method: Jurkat clone E6-1 (ATCC) cells were grown in RPMI-1640 supplemented with 10% fetal bovine serum, sodium pyruvate, and antibiotics. Normal cells were harvested for experiments at a density of 1×10^6 cells/ml. For apoptotic samples, cells at a density of 1×10^6 cells/ml were treated with etoposide (50 μM) for 12 hours prior to harvesting. Harvested cells (0.1 to 1 billion) were pelleted at 2,000×g and 25° C. for 5 minutes, washed twice with phosphate buffered saline, and lysed at a typical concentration of 2×10^8 cells/ml in 1.0% Triton X-100, 100 mM BICINE pH 8.0, 100 μM Z-VAD-FMK, 100 μM E-64, 1 mM PMSF, 1 mM AEBSF, and 5 mM EDTA. Cell lysates were incubated at room temperature for 1 hour to allow complete inhibition of endogenous protease and esterase activity, and centrifuged at 21,000×g and 4° C. for 15 minutes to pellet insoluble material. Clarified supernatant was immediately used in ligation reactions at a protein concentration of approximately 20 mg/ml, as determined by Bradford assay (Bio-Rad).
Subtiligase (1 μM), biotinylated peptide ester (1 mM), and DTT (2 mM) were added to either control or apoptotic cell lysate. Ligation reactions were typically left to proceed at room temperature for 60 minutes. […]

[3] = Jurkat cells, 50 μM etoposide, immunoblot

COC(=O)C[C@H](NC(=O)[C@H](C)NC(=O)[C@@H](NC(=O)OCc1ccccc1)C(C)C)C(=O)CF [Z-VAD(OMe)-fmk] (Cbz-Val-Ala-Asp(OMe)-CH2F)
cleavage of representative substrates HDAC7, Ku80, RCOR2, TBLR1, and UBP36 (Jurkat cells [1]; etoposide-treated Jurkat cells with caspase inhibitor): blocked

CC(C)C[C@H](NC(=O)[C@H](Cc1ccccc1)NC(=O)c1cnccn1)B(O)O [bortezomib]
apoptosis of treated cells (MM1.S): at least 50%

Nc1ccn([C@@H]2O[C@H](CO)[C@@H](O)[C@@H]2O)c(=O)n1 [cytarabine]
apoptosis of treated cells (MOLM-13): at least 50%

COc1cccc2c1C(=O)c1c(O)c3c(c(O)c1C2=O)C[C@@](O)(C(=O)CO)C[C@@H]3O[C@H]1C[C@H](N)[C@H](O)[C@H](C)O1 [doxorubicin]
apoptosis of treated cells (SU-DHL-8): at least 50%

COc1cc([C@@H]2c3cc4c(cc3[C@@H](O[C@@H]3O[C@@H]5CO[C@@H](C)O[C@H]5[C@H](O)[C@H]3O)[C@H]3COC(=O)[C@H]23)OCO4)cc(OC)c1O [etoposide]
N-termini identified in apoptotic cells derived from P1 aspartate cleavages (Jurkat cells [2]; large-scale (2D LC/MS/MS) experiments): 43% | N-termini identified in apoptotic cells derived from P1 aspartate cleavages (Jurkat cells [2]; small-scale (1D LC/MS/MS) experiments): 43% | proteolysis of CM, Ku80, LCOR, and RBBP7 (time courses) (Jurkat cells [1]; [3]): partial cleavage | proteolysis of HDAC6, HDAC7, N-CoR, RCOR2, SHARP, TBLR1, UBPS, and UBP36 (time courses) (Jurkat cells [1]; [3]): full cleavage
